This is an account of results in patent publication US8846704B2, “Thiopyrimidine-based compounds and uses thereof” (YM Biosciences Austraila Pty Ltd, priority 2007, dated 2014).

Assay [1] concerns the target T1, human JAK3 (Homo sapiens, UniProt P52333).
T1 construct: The kinase domain of human JAK3 was amplified; GST (N); made in house; host or cells: Sf9 insect cells (baculovirus)
Nature of the assay: Alphascreen tyrosine kinase enzyme assay, JAK3 kinase domain. Particulars: read-out: JAK3 IC50_nM. The format is biochemical. An outline of the steps: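 GST-affinity-purified human JAK3 kinase domain (baculovirus/Sf9) was pre-incubated 20 min with compound ([…]) in HEPES pH 7.5 buffer with MgCl2, vanadate and Tween 20. Biotinylated peptide substrate ([…]) and ATP were then added; phosphotyrosine was detected by AlphaScreen PY100 acceptor and streptavidin donor beads after 2–3 h.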
(In general: Bead proximity is the source of the signal in Alpha formats.)

The target in assay [2] is T2, Bmx(h) (Homo sapiens, UniProt P51813).
T2 construct: purchased Upstate Biotechnology (Dundee, UK), KinaseProfiler service
T2 sequence (P51813 1-675): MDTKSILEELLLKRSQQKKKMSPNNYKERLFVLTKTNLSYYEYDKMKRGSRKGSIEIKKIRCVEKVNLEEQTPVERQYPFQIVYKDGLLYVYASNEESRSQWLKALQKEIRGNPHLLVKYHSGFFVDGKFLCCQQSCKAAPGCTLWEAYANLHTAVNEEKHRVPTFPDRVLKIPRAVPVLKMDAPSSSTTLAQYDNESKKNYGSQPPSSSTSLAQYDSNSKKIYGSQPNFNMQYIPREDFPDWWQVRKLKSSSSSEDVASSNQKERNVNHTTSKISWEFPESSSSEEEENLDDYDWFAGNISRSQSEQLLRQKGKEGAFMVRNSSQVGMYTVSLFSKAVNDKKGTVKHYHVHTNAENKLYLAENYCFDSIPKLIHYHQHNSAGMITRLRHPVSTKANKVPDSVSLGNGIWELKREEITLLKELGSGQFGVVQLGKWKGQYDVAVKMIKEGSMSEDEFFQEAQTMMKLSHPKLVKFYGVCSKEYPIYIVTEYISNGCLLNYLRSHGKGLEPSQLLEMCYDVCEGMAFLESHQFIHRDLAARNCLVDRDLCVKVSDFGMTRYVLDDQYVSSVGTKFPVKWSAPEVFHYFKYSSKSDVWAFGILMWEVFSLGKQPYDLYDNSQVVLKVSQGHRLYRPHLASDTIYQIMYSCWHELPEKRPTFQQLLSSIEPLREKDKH
In words: Upstate KinaseProfiler enzyme assay, Bmx. Particulars: 500 nM compound; read-out: Percent inhibition at 500 nM Bmx(h). The format is biochemical. In short, it runs like this: (§1)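 First, enzymes were pre-diluted (10× working) in 20 mM MOPS, pH 7.0, supplemented with EDTA (1 mM), BSA (1 mg/ml) and glycerol (5%), plus 0.1% β-mercaptoethanol and 0.01% Brij-35. Next, they were added to the assay alongside substrates diluted in de-ionised water.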

Assay [3] concerns the target T3, KDR(h) (Homo sapiens, UniProt P35968).
T3 construct: purchased Upstate Biotechnology (Dundee, UK), KinaseProfiler service
Nature of the assay: Upstate KinaseProfiler enzyme assay, KDR. The format is biochemical. Particulars: 500 nM compound; read-out: Percent inhibition at 500 nM KDR(h). An outline of the steps:
as §1

In assay [4] the target is T4, Blk(m) (Mus musculus, UniProt P16277).
T4 construct: purchased Upstate Biotechnology (Dundee, UK), KinaseProfiler service
In words: Upstate KinaseProfiler enzyme assay, Blk. The assay is classed as biochemical. Particulars: 500 nM compound; read-out: Percent inhibition at 500 nM Blk(m). An outline of the steps:
as §1

In assay [5] the target is T5, human JAK2 (Homo sapiens, UniProt O60674).
T5 construct: The kinase domain of human JAK2 was amplified; GST (N); made in house; host or cells: Sf9 insect cells (baculovirus)
Nature of the assay: Alphascreen tyrosine kinase enzyme assay, JAK2 kinase domain. Conditions: read-out: JAK2 IC50_nM. The format is biochemical. In short, it runs like this: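 JAK2 kinase domain expressed in baculovirus/Sf9 and glutathione-affinity purified. Compounds (final […]) pre-incubated 20 min with enzyme in 10 mM HEPES pH 7.5, MgCl2, NaCl, vanadate, 0.1% Tween 20.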

Assay [6] concerns BaF3 wild-type cells. Nature of the assay: Cellular screening, BaF3 wild-type cells, Alamar Blue. The format is cell-based. Conditions: Mus musculus, 40 hr, read-out: BAF3wt IC50_nM. In short, it runs like this:
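Cells were cultured in DMEM with 10% FCS and 10% WEHI 3B conditioned medium, and suspensions were prepared at 1.1× final (50,000–200,000 cells/mL). Compounds from 20 μM dilution plates were added at 10× final and incubated for 40 hr at 37° C, 5% CO2. Alamar Blue was then added for 4–6 hours and read at 544 nm.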
For orientation: Resazurin is reduced to fluorescent resorufin, in cell work by metabolically active cells.

T3 sequence (P35968 20-1356): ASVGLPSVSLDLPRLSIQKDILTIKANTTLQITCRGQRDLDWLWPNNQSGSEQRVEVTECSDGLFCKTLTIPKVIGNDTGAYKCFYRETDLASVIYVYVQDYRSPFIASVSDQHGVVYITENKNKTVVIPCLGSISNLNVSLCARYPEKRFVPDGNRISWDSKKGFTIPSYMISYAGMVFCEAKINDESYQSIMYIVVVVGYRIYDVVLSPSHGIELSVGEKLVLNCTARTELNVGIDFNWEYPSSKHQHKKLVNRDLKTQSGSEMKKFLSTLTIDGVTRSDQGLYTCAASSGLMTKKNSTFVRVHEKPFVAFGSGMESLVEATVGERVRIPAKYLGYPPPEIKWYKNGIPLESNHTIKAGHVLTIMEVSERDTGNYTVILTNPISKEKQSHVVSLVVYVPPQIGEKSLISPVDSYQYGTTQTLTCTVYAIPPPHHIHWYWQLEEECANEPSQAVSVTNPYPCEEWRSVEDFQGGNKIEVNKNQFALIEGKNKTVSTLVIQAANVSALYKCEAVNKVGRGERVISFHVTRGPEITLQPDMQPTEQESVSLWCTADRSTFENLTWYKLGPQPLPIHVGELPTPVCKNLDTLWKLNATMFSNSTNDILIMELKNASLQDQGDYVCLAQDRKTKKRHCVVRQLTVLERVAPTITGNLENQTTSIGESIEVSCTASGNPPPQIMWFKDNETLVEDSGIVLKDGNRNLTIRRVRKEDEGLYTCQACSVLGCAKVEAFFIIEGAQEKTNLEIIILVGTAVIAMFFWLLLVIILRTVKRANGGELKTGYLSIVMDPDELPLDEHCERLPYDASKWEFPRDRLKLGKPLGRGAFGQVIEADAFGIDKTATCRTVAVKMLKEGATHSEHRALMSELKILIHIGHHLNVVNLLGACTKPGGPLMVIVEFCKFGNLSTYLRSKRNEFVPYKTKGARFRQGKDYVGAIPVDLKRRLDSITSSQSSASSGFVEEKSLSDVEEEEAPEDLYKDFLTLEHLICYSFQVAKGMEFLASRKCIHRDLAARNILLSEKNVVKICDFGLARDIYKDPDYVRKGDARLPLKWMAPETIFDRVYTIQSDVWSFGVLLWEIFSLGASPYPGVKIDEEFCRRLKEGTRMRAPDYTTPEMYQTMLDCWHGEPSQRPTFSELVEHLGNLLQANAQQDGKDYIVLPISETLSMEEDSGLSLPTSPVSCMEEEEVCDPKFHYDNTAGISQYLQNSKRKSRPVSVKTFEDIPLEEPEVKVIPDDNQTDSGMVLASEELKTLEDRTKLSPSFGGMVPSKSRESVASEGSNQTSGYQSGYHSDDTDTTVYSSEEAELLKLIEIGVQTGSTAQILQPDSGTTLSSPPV
T4 sequence (P16277 whole entry): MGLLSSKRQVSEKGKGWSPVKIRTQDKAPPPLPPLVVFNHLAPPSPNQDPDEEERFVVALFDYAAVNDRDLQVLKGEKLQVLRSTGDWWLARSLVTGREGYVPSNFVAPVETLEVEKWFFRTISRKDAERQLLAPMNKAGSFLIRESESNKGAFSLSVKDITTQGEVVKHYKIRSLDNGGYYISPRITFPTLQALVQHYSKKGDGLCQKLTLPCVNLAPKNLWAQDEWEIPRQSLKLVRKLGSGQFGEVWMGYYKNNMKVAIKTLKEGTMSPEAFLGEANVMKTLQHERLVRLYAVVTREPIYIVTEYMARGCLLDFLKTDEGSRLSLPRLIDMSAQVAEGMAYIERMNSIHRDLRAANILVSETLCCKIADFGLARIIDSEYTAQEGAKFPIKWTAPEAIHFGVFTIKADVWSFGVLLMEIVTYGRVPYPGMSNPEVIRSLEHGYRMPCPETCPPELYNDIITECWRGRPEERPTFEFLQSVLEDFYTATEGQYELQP
T5 sequence (O60674 849-1124 limits assumed): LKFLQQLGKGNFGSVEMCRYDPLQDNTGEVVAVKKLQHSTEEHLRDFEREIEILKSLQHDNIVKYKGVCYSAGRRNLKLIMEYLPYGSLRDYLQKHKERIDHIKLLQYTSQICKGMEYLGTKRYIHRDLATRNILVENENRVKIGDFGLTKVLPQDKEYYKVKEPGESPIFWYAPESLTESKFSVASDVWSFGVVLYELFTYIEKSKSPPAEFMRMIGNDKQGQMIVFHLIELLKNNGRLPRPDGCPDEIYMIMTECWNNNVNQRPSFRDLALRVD
T1 sequence (P52333 822-1111 limits assumed): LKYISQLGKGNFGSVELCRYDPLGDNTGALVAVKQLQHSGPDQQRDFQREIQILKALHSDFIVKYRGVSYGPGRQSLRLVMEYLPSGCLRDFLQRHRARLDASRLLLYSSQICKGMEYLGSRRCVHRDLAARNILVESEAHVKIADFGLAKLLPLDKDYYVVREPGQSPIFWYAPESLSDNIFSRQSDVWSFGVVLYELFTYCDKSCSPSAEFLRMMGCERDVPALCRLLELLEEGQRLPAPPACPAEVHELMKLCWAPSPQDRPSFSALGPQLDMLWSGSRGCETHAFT

Take `C=CC(=O)Nc1cccc(Sc2ccnc(Nc3ccc(OC)cc3)n2)c1` [Compound 120, N-(3-(2-(4-methoxyphenylao)pyrimidin-4-ylthio)phenyl)acrylamide]: the IC50 in assay [1] was less than 100 nM; in assay [5], greater than 1000 nM; in assay [6], greater than 20000 nM. For the same molecule, the inhibition at 0.5 µM in assay [2], in assay [3] and in assay [4] was 100% in each case.
For `C=CC(=O)Nc1ccc(Sc2nc(Nc3ccc(N4CCOCC4)cc3)ncc2C)cc1` [Compound 124, N-(4-(5-methyl-2-(4-morpholinophenylao)pyrimidin-4-ylthio)phenyl)acrylamide], the figures for the IC50 in assay [1], in assay [5] and in assay [6] were less than 100 nM, greater than 1000 nM and greater than 20000 nM, respectively. Besides, the inhibition at 0.5 µM in assay [2], in assay [3] and in assay [4] was 100% throughout.
`CC#CC(=O)Nc1ccc(Sc2nc(Nc3ccc(N4CCOCC4)cc3)ncc2C)cc1` [Compound 125, N-(4-(5-methyl-2-(4-morpholinophenylao)pyrimidin-4-ylthio)phenyl)but-2-ynamide]: the IC50 was less than 100 nM in assay [1], greater than 1000 nM in assay [5] and greater than 20000 nM in assay [6]. The inhibition at 0.5 µM in assay [2], in assay [3] and in assay [4] was 100% in each case.
Regarding `Cc1cnc(Nc2ccc(N3CCOCC3)cc2)nc1Sc1ccc(N)cc1` [Compound 126, 4-(4-aophenylthio)-5-methyl-N-(4-morpholinophenyl)pyrimidin-2-ae], the figures for the IC50 in assay [1], in assay [5] and in assay [6] were less than 100 nM, less than 500 nM and greater than 20000 nM, respectively. Also, the inhibition – broadly, the share of the control response that was lost under treatment – at 0.5 µM in assay [2] was 78%; in assay [3], 95%; in assay [4], 43%.
Turning to `C=CC(=O)Nc1ccc(Sc2ccnc(Nc3ccc(C#N)cc3)n2)cc1` [Compound 131, N-(4-(2-(4-cyanophenylao)pyrimidin-4-ylthio)phenyl)acrylamide], the IC50 in assay [1] was less than 100 nM; in assay [5], greater than 1000 nM; in assay [6], less than 5000 nM. In addition, the inhibition at 0.5 µM in assay [2], in assay [3] and in assay [4] was 100% each time.
For `C=CC(=O)Nc1ccc(Sc2ccnc(Nc3ccc(N4CCOCC4)cc3)n2)c(Cl)c1C` [Compound 161, N-(3-chloro-2-methyl-4-(2-(4-morpholinophenylao)pyrimidin-4-ylthio)phenyl)acrylamide], the IC50 in assay [1] is less than 100 nM; in assay [5] it was greater than 1000 nM; in assay [6], greater than 20000 nM. Also, the inhibition at 0.5 µM in assay [2], in assay [3] and in assay [4] was 100% throughout.
Take `C=CC(=O)Nc1cc(C)c(Sc2nc(Nc3ccc(N4CCOCC4)cc3)ncc2C)c(C)c1` [Compound 164, N-(3,5-dimethyl-4-(5-methyl-2-(4-morpholinophenylao)pyrimidin-4-ylthio)phenyl)acrylamide]: the IC50 is less than 100 nM in assay [1], greater than 1000 nM in assay [5] and greater than 20000 nM in assay [6]. Also, the figures for the inhibition at 0.5 µM in assay [2], in assay [3] and in assay [4] were 87%, 83% and 62%, respectively.
Take `C=CC(=O)Nc1ccc(Sc2nc(Nc3ccc(N4CCC(C(=O)OCC)CC4)cc3)ncc2C)cc1` [Compound 292, ethyl 1-(4-(4-(4-acrylamidophenylthio)-5-methylpyrimidin-2-ylao)phenyl)piperidine-4-carboxylate]: the IC50 in assay [1] was less than 100 nM; in assay [5], greater than 1000 nM; in assay [6] it was greater than 20000 nM. The inhibition at 0.5 µM in assay [2] worked out at 59%; in assay [3], 96%; in assay [4], 10%.
As for `C=CC(=O)Nc1ccc(Sc2nc(Nc3ccc(CNS(C)(=O)=O)cc3)ncc2C)cc1` [Compound 294, N-(4-(5-methyl-2-(4-(methylsulfonamidomethyl)phenylao)pyrimidin-4-ylthio)phenyl)acrylamide], the IC50 in assay [1] is less than 100 nM; in assay [5], greater than 1000 nM; in assay [6], greater than 20000 nM. The inhibition at 0.5 µM in assay [2] came out at 92%; in assay [3], 93%; in assay [4], 37%.
Take `C=CC(=O)Nc1ccc(Sc2nc(Nc3ccc(N4CCOCC4)cc3)ncc2-c2ccccc2)cc1` [Compound 307, N-(4-(2-(4-morpholinophenylao)-5-phenylpyrimidin-4-ylthio)phenyl)acrylamide]: the IC50 is less than 100 nM in assay [1], greater than 1000 nM in assay [5] and greater than 20000 nM in assay [6]. Also, the inhibition at 0.5 µM in assay [2] stood at 29%; in assay [3] it was 72%; in assay [4], 0%.
In the case of `C=CC(=O)Nc1ccc(Sc2ccnc(Nc3ccccc3)n2)cc1` [Compound 350, N-(4-(2-(phenylao)pyrimidin-4-ylthio)phenyl)acrylamide], the figures for the IC50 in assay [1], in assay [5] and in assay [6] were less than 100 nM, greater than 1000 nM and greater than 20000 nM, respectively. The inhibition at 0.5 µM in assay [2], in assay [3] and in assay [4] was 100% throughout.
Take `C=CC(=O)Nc1ccc(Sc2ccnc(Nc3ccc(S(N)(=O)=O)cc3)n2)cc1` [Compound 352, N-(4-(2-(4-sulfamoylphenylao)pyrimidin-4-ylthio)phenyl)acrylamide]: the IC50 was less than 100 nM in assay [1], greater than 1000 nM in assay [5] and greater than 20000 nM in assay [6]. The inhibition at 0.5 µM in assay [2], in assay [3] and in assay [4] was 100% throughout.
Turning to `C=CC(=O)Nc1ccc(Sc2ccnc(Nc3ccc(Cl)cc3)n2)cc1` [Compound 353, N-(4-(2-(4-chlorophenylao)pyrimidin-4-ylthio)phenyl)acrylamide], the IC50 was less than 100 nM in assay [1], greater than 1000 nM in assay [5] and greater than 20000 nM in assay [6]. Also, the inhibition at 0.5 µM in assay [2], in assay [3] and in assay [4] was 100% each time.
With `C=CC(=O)Nc1ccc(Sc2ccnc(Nc3ccc(F)c(C#N)c3)n2)cc1` [Compound 354, N-(4-(2-(3-cyano-4-fluorophenylao)pyrimidin-4-ylthio)phenyl)acrylamide], the IC50 in assay [1] was less than 100 nM; in assay [5], greater than 1000 nM; in assay [6], less than 20000 nM. The inhibition at 0.5 µM in assay [2], in assay [3] and in assay [4] was 100% throughout.
As to `C=CC(=O)Nc1ccc(Sc2ccnc(Nc3cccc(C(=O)OC)c3)n2)cc1` [Compound 356, methyl 3-(4-(4-acrylamidophenylthio)pyrimidin-2-ylao)benzoate], the IC50 is less than 100 nM in assay [1], greater than 1000 nM in assay [5] and less than 20000 nM in assay [6]. Besides, the inhibition at 0.5 µM in assay [2], in assay [3] and in assay [4] was 100% in each case.
As for `C=CC(=O)Nc1ccc(Sc2ccnc(Nc3cccc(S(N)(=O)=O)c3)n2)cc1` [Compound 364, N-(4-(2-(3-sulfamoylphenylao)pyrimidin-4-ylthio)phenyl)acrylamide], the values for the IC50 in assay [1], in assay [5] and in assay [6] were less than 100 nM, greater than 1000 nM and less than 20000 nM, respectively. Moreover, the inhibition at 0.5 µM in assay [2] amounted to 73%; in assay [3], 96%; in assay [4], 81%.
